What was measured:
GR = assay: Western blot of GR in hippocampus, chronic cocaine ± 5-MeO-DMT; type: in vivo, Male Wistar rats
Excerpt: Male Wistar rats aged 7 weeks were acclimatized to the facility for 1 week prior to the beginning of the study. […] Animals were euthanized 23- or 119-hours following vehicle or 5-MeO-DMT administration.
Following euthanasia brain regions of interest were isolated. Briefly, the olfactory bulbs were removed before the brain was placed in a rat brain matrix (FIG. 2A). Sterile blades were inserted at positions 2 and 3 (FIG. 2B) to extract a coronal slice containing the Bregma+˜0.2-+˜2.2 coordinates (FIG. 2C). From this tissue slice a blunted 12 G needle was used to punch dissect the NAc and dorsal striatum (DS) (FIG. 2D-2E) identified using the rat brain atlas (Panxinos and Watson 2nd edition). The PFC, hippocampus (Hip) and amygdala (Amyg) were then blunt dissected (FIG. 3A-3D). All regions were frozen in liquid nitrogen and stored at −80° C. until processed.
These treatment groups were used for the molecular assessment of addiction-linked markers.
Determination of protein concentration—a bicinchoninic acid assay (BCA, ThermoFisher) was conducted to determine the total protein concentration in tissue lysates following manufacturer's instructions. […] For tissue lysates a 1:10 dilution was performed with cell lysis buffer to ensure absorbance values lay within the working range established by the standards. […] The plate was covered and incubated for 30 mins at 37° C. before absorbance was read at 562 nm on a plate reader (SpectraMax M3). The absorbance values were used to form a standard curve of known protein concentrations and protein concentration of samples were derived using the equation of the line. […]
SDS-PAGE and Western Blotting—Following equalisation of protein concentrations, 6× sample loading buffer (15% SDS, 15% […], 50% glycerol, 0.01% bromophenol blue, […]) was added to each sample using a dilution factor of 1:5 of the total volumes before boiling at 100° C. for 5 mins. […] The percentage of acrylamide in the resolving or stacking gel was determined by the molecular weight of the protein of interest. […]

rats [1] = assay: Forced swim test; type: in vivo; conditions: cohort 2; for immobility or time spent swimming: between treatment groups
Description: (§1) In this instance the animals were 9 weeks old at the initiation of drug exposures and we selected just the high (20 mg/kg) dose of 5-MeO-DMT from the molecular study. […] Due to the number of behavioral paradigms to be completed by each animal we divided the study into two cohorts staggered by two weeks with 8 animals coming from each cohort to make up the 16 animals for each treatment group. 23 hours after 5-MeO-DMT administration the animals were introduced to the open field arena where they were allowed to freely explore the area for 5 mins. Following the open field test (OFT) animals were returned to their home cage for 2 hours before beginning either the elevated plus maze (EPM) or pre-pulse inhibition (PPI) testing. 24 hours after completing the OFT animals were returned to the chamber for the first session in novel object (NO1) testing. The animals were returned to their home cage for 2 hours before beginning the EPM or PPI test. 24 hours after NO1 the animals returned to the open field chamber for the second session in novel object (N02) testing. After completing N02 animals were returned to their home cage for 2 hours before they underwent the forced swim test (FST) pre-test. 24 hours later the animals were returned to the FS cylinders for the FST. Upon completion of the FST all animals were euthanized. A timeline of this experimental cohort is described in FIG. 8A.
The experiment was conducted as described for cohort 1 for the first 13 days of injections. There are a number of notable differences in experimental procedures between the two cohorts of animals to be highlighted. […] Finally, the dose of 5-MeO-DMT was reduced to 10 mg/kg. […]
The FST apparatus consisted of a clear Plexiglas cylinder measuring 80 cm tall, 20 cm in diameter and filled with 40 cm of 24+1° C. water. […] 24 hours later, rats were again placed in the FST apparatus for 5 min and their activity was video recorded (FIG. 12A-12B). Each video was scored for immobility, swimming, and climbing behavior by trained blinded observers.

rats [2] = assay: Elevated plus maze; type: in vivo
Description: as §1
The experiment was conducted as described for cohort 1 for the first 13 days of injections. There are a number of notable differences in experimental procedures between the two cohorts of animals to be highlighted. […] Finally, the dose of 5-MeO-DMT was reduced to 10 mg/kg. The order and timing of all the behavioral paradigms were kept constant between the cohorts. A timeline of this experimental cohort is described in FIG. 8B. Additionally, 5-MeO-DMT administrations were staggered so animals could be observed for the duration of acute drug effects and to ensure recovery prior to the next animal being injected. The typical symptoms of psychedelic drug administration outlined above were reproduced in all animals administered 5-MeO-DMT.
Our EPM apparatus consisted of a plus-shaped white plastic platform positioned 100 cm above the ground. Two opposite arms of the maze were bordered by vertical walls measuring 20 cm high, with the other two arms open to the environment with no edges. Animals were placed into the centre of the maze facing a closed arm and allowed to explore freely for 5 min. At the conclusion of the test, rats were returned to their home cages and the apparatus was cleaned with 2% distal. Animal movement was recorded during the trial using Any-Maze software. Time spent in open or closed arms, number of entries into open arms and number of grooming behaviors were all quantified (FIG. 10A-10B). Behavioral assessment was conducted in a quiet room under low-level red-light illumination. Behaviors were scored by two observers blind to experimental conditions.

[3] = cohort 1, either treatment or the combination
[4] = cohort 2, either treatment or their combination

| SMILES | GR expression (GR; 24 h, cocaine, p=0.0434, no post hoc differences) | GR expression (GR; 120 h, cocaine effect) | immobility or time spent swimming (rats [1]) | secondary anxiety measures, stretch-attenuated posture (SAP) or head dipping (rats [2]; cohort 1) | duration of time spent in the open arms (rats [2]; [3]) | number of entries into the open arms (rats [2]; [3]) | duration of time spent in the open arms (rats [2]; cohort 2, cocaine p=0.0031) | head dipping (rats [2]; cohort 2, cocaine p=0.0054, no post hoc differences) | number of entries into the open arms (rats [2]; cohort 2, cocaine p=0.0055) | total distance travelled (rats [2]; [4]) | GR expression (GR; 24 h and 120 h, 5-MeO-DMT) | climbing time (rats [1]; cocaine and 5-MeO-DMT (10 mg/kg) combination relative to control) | total distance travelled, main effect (rats [2]; cohort 1, 5-MeO-DMT p<0.0001) | total distance travelled (rats [2]; cohort 1, cocaine+20 mg/kg 5-MeO-DMT relative to cocaine alone) | duration of time spent on the open arms (rats [2]; cohort 2, cocaine and 5-MeO-DMT (10 mg/kg) combination relative to control and 5-MeO-DMT alone) |
| --- | --- | --- | --- | --- | --- | --- | --- | --- | --- | --- | --- | --- | --- | --- | --- |
| COC(=O)[C@H]1[C@@H](OC(=O)c2ccccc2)C[C@@H]2CC[C@H]1N2C.Cl [cocaine, cocaine hydrochloride, reference compound] | significantly affected GR expression | not detectable | no differences in immobility or time spent swimming | no treatment effects | unaffected by either treatment or the combination | unaffected by either treatment or the combination | significantly affected | significantly affected | significantly affected | no effect of either treatment or their combination | – | – | – | – | – |
| COc1ccc2[nH]cc(CCN(C)C)c2c1 [5-MeO-DMT, 5-methoxy-N,N-dimethyltryptamine] | – | – | no differences in immobility or time spent swimming | no treatment effects | unaffected by either treatment or the combination | unaffected by either treatment or the combination | – | – | – | no effect of either treatment or their combination | no 5-Meo-associated regulation of GR | significant increase in climbing time | significant effect | reduction in the total distance travelled | significantly increased |

— patent US20240299353A1, “COMPOSITIONS AND METHODS FOR TREATING […] 5-MEO-DMT” (Alvarius Pharmaceuticals Ltd., priority 2021, published 2024)
